Assay results reported in BindingDB's records for doi:10.1021/cb800120t (deCODE Chemistry Inc, 2008).

Target: T1, m7GpppX diphosphatase (Homo sapiens, UniProt Q96C86)
T1 sequence (Q96C86 whole entry): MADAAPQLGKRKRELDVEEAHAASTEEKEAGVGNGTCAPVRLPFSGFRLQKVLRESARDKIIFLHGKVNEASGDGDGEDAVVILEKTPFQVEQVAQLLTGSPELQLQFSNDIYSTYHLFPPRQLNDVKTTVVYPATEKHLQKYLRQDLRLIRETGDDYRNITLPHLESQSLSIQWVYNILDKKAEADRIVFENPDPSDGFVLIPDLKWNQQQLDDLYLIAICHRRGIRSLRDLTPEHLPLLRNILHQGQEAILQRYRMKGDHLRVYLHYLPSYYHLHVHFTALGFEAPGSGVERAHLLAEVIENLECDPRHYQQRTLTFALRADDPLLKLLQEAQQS
Assay: Biochemical Assay
Source text: In vitro biochemical assay using scavenger decapping enzyme (DcpS) as a target and cell based assay using SMN2 b-lactamase NSC-34 cell reporter gene.

EC50	IC50	SMILES
921 nM	–	Nc1nc(N)c2c(OCC3CCN(CC4CCNCC4)CC3)cccc2n1 [D157554]
2540 nM	339 nM	CC(=O)Nc1nc(CN2CCC(COc3cccc4nc(N)nc(N)c34)CC2)cs1 [D156676]
108 nM	9.38 nM	Cn1ccnc1CN1CCC(COc2cccc3nc(N)nc(N)c23)CC1 [D157555]
223 nM	23.4 nM	Nc1nc(N)c2c(OCC3CCN(CC(F)(F)F)CC3)cccc2n1 [D158963]
243 nM	–	Nc1nc(N)c2c(COc3ccccc3I)cccc2n1 [D153215]
795 nM	101 nM	Nc1nc(N)c2c(OCC3CCN(c4ccccc4Cl)CC3)cccc2n1 [D158885]
